Legend:
Huh7 cells [1] = experiment: Seahorse mitochondrial stress test (OCR) in Huh7 cells; format: cell-based, human; conditions: Huh7, 24 h
Experimental: Oxygen Consumption Rates (OCR) were measured on an XF-96 Extracellular Flux Analyzer (Seahorse Bioscience) using the protocol and conditions optimized for HCC cells as previously described by our group. Briefly, the experiments were performed by seeding 10,000 and 20,000 Huh7 cells per well in XFe 96 well-plates 36 h before the experiment. Cells were treated for 24 h with FH535, FH535-N or vehicle control. In OCR experiments the media was supplemented with 25 mM Glucose and 1 mM Pyruvate just before the assay. After minimal incubation time (˜20-30 min in non-CO2 37° C. incubator) mitochondrial stress test was initiated. […] All reagents used in the Seahorse experiments were purchased from Sigma-Aldrich. Analyses of data were performed with Wave 2.2 software (Seahorse Bioscience), Excel (Microsoft Office 2013) and Prism 7.0 (GraphPad Software).

AMPK = experiment: Western blot of AMPK (T172) and ACC (S79) phosphorylation in CRC cells; format: cell-based, human; conditions: concentration not given
Experimental: Biochemistry. Western blotting: Cells were lysed in the appropriate volume of lysis buffer: 50 mM HEPES, 100 mM NaCl, 2 mM EDTA, 1% (v/v) glycerol, 50 mM NaF, 1 mM Na3VO4, 1% (v/v) Triton X-100, with protease inhibitors. The following antibodies were used: AMPK (Cell Signaling, 2532, Cell Signaling Technologies, Danver, Mass., USA), pAMPK (Cell Signaling, 2535), ACC (Cell Signaling, 3676), pACC (Cell Signaling, 11818), Actin (Sigma, A1978). Antibodies for Axin 2, c-Myc and Cyclin D1 have been described previously. ATP analysis: Cells growing in 12-well plates were treated with DMSO or inhibitors in DMSO solution and lysed by adding 1 mL boiling doubly distilled water. Supernatants were analyzed by luminescence using ATP Determination Kit (Invitrogen, A22066; Thermo Fisher Scientific, Waltham, Mass., USA).

[2] = test system: Wnt/β-catenin target genes; experiment: Expression of downstream β-catenin targets in Huh7 cells (western blot, RT-qPCR); format: cell-based, human; conditions: Huh7, 36 h
Experimental: (§1) Primary antibodies are described in Table 1.
Total RNA was extracted with miRNeasy mini kit (Qiagen, Germany), and the corresponding cDNA was produced using iScript cDNA synthesis kit (BioRad, USA) from 1 μg of total RNA. Real time quantitative PCR (RT-qPCR) was performed using SsoAdvanced Universal SYBR Green supermix (BioRad, USA) with specific primers: p62 (SQSTM1: 5′-[…]-3′ (SEQ ID NO: 1) and 5′-[…]-3′ (SEQ ID NO: 2)); c-MYC (cMYC: 5′-[…]-3′ (SEQ ID NO: 3) and 5′-[…]-3′ (SEQ ID NO: 4)), Survivin (BIRC5, 5′-[…]-3′ (SEQ ID NO: 5) and 5′-[…]-3′ (SEQ ID NO: 6)), AXIN 2 (AXIN2: 5′-[…]-3′ (SEQ ID NO: 7) and 5′-[…]-3′ (SEQ ID NO: 8)), Cyclin D1 (5′-CCND1: […]-3′ (SEQ ID NO: 9) and 5′-[…]-3′ (SEQ ID NO: 10)), and b2-microglobulin (B2M: 5′-[…]-3′ (SEQ ID NO: 11) and 5′-[…]-3′ (SEQ ID NO: 12)). Transcript levels were normalized to β-actin or […] level as indicated using the ΔΔCt method.

PLC/PRF/5 cells [3] = experiment: [3H]-thymidine incorporation assay, PLC/PRF/5; format: cell-based, human; conditions: PLC/PRF/5, 72 h
Experimental: (§2) Huh7, PLC/PRF/5 and Hep3B cells were plated in 96-well plates at 3000-4000 cells/well, treated with the concentrations indicated of FH535 or FH535-N, as single agents or in combination with sorafenib, and cultured for 72 h. ^3H-thymidine incorporation assay was performed as described previously.

Huh7 cells [4] = experiment: Cyto-ID autophagy detection assay in Huh7 cells; format: cell-based, human; conditions: Huh7, 40 h, ±50 μM CQ
Experimental: Autophagy responses were monitored with the Cyto-ID autophagy detection reagent 2.0 (Enzo Life Sciences, USA) according to the manufacturer's instructions. Huh7 and PLC/PRF/5 cells were seeded in 12-well plates and treated the following day with drugs or DMSO vehicle control at the indicated concentrations. CQ was added to the corresponding wells to a final concentration of 50 μM 8 h prior harvesting. After 40 h of drug treatment, cells were collected and assessed for viability with Zombie Violet dye solution (BioLegend, USA) followed by Cyto-ID autophagy detection reagent staining. Flow cytometry analyses were performed in a BD LSRII at the Flow Cytometry and Cell Sorting Shared Resource Facility of the University of Kentucky Markey Cancer Center and data were analyzed with the FlowJo Software version 7.6.5 (Tree Star, USA). The autophagic flux was quantified by subtracting the Cyto-ID MFI value of the sample without CQ from the Cyto-ID MFI value of the sample with CQ for each condition according to the formula: […]

Hep3B cells = experiment: [3H]-thymidine incorporation assay, Hep3B; format: cell-based, human; conditions: 72 h
Experimental: as §2

Wnt signaling = experiment: Wnt reporter assay, stable HEK293T cell line containing TOPFlash reporter, LiCl-activated; format: cell-based, human; conditions: concentration not given
Description: To identify novel Wnt regulators by high throughput screening, a stable HEK293T cell line containing the TOPFlash reporter was established. To identify Wnt inhibitors that targeted molecular events downstream of β-catenin, we treated these cells with lithium chloride to inhibit GSK3 and to stabilize β-catenin. […] We also validated the results by transient transfection of Super 8× TOPFlash or 8× FOPFlash into HEK293T cells. […] Since the results from the stable and transient transfection are compatible, we used stable cell lines for all of the other experiments.
Reporter assay. Wnt reporter assay and cell staining assay have been described previously. We subcloned Super 8×TOPFlash (provided by Professor Randall Moon, University of Washington) into the pGL4.83 [hRlucP/Puro] Vector and transfected it into HEK293T cells. A stable HEK293T cell line containing the TOPFlash reporter was established using puromycin selection. To screen Wnt inhibitors that block the downstream signaling transduction pathway of β-catenin, we treated the reporter cells with 25 mM LiCl to stabilize β-catenin and activate Wnt signaling. The potential Wnt inhibitors identified from screening were validated by transfecting TOPFlash or FOPFlash plus control renilla reporters into HEK293T cells, and then treating the cells with DMSO or testing compounds in DMSO solution. The Wnt signaling was activated by LiCl or Wnt3A treatment.

PLC/PRF/5 cells [5] = experiment: Annexin V/PI apoptosis assay, PLC/PRF/5; format: cell-based, human; conditions: PLC/PRF/5, 48 h
Experimental: (§3) Apoptosis assay was performed in Huh7 and PLC/PRF/5 cells treated 48 h with DMSO vehicle control or the indicated doses of FH535, FH535-N alone or in combination with sorafenib. Cells were harvested and stained with the APC Annexin V apoptosis detection kit with PI (BioLegend, USA) according to the manufacturing instructions followed by flow cytometry analysis. Flow cytometry data was acquired with an LSRII instrument (BD-Biosciences) and analyzed with FlowJo software (Tree Star).

Huh7 cells [6] = experiment: Annexin V/PI apoptosis assay, Huh7; format: cell-based, human; conditions: Huh7, 48 h
Experimental: as §3

[7] = test system: purified mitochondria from mouse liver; experiment: Uncoupling assay (OCR) using purified mitochondria from mouse livers; format: biochemical; conditions: 5 μM/1 μM
Experimental: All the steps were carried out at 4° C. or on ice. After mice were euthanized with CO2 followed by rapid decapitation, whole liver was quickly dissected out on a cold block and homogenized using a Teflon-glass dounce homogenizer containing isolation buffer (215 mM mannitol, 75 mM sucrose, 0.1% BSA, 20 mM HEPES, 1 mM EGTA, adjusted to pH 7.2 with KOH). The homogenate was transferred to a 2 mL-microcentrifuge tube and spun at 1,300×g for 3 min. The supernatant was transferred to a fresh 2 mL-microcentrifuge tube and spun at 13,000×g for 10 min. The supernatant was discarded, and the crude mitochondrial pellet was resuspended in a 1.5 mL-microcentrifuge tubes and pelleted again at 10,000×g for 10 min. The supernatant was discarded, and the mitochondrial pellets were resuspended in isolation buffer to obtain an approximate concentration ≥10 mg/mL of mitochondria. The absolute protein concentration was determined using a bicinchoninic acid (BCA) protein assay kit (Pierce, Cat #23,227) by recording absorbance at 560 nm on a Biotek Synergy HT plate reader (Winooski, Vt., USA).
Mitochondrial Bioenergetics Measurements. Mitochondrial bioenergetic measurements were carried out using a Seahorse XFe96 Extracellular Flux Analyzer (Agilent Technologies, Santa Clara, Calif., USA) to measure oxygen consumption rate (OCR) during various states of respiration. The OCR were measured in the presence of different substrates, inhibitors and uncouplers of the electron transport chain using previous methods with slight modifications. The stocks used for the assays were 500 mM pyruvate, 250 mM malate, and 30 mM adenosine diphosphate (ADP), and 1 M succinate (pH for all was adjusted to 7.2). […] Stock solutions of FH535, Y3, FH535-M, and Y3-M were prepared at 5 mM in 100% DMSO. As per the instructions from XFe96 Extracellular Flux kit, the sensor cartridge was hydrated with water and kept at 37° C. overnight before the experiment. One hour before the assay was conducted, water was removed from assay plates and XF calibrant was added before re-incubation. The injection ports A to D of the sensor cartridge were loaded with 25 μL of different combinations of the above substrates/inhibitors/uncouplers as follows. Before loading, the stocks were diluted appropriately in the respiration buffer (RB) (125 mM KCl, 0.1% BSA, 20 mM HEPES, 2 mM MgCl2, and 2.5 mM KH2PO4; pH 7.2) to get the final concentrations in the respiration chamber of 5 μM pyruvate, 2.5 μM malate, 10 μM of succinate and 1 μM ADP (via Port A), 1 μM oligomycin A (via Port B), 4 μM FCCP or 5 μM/1 μM FH535 or 5 μM/1 μM Y3 or 5 μM/1 μM FH535-M or 5 μM/1 μM Y3-M (via Port C) and 0.1 μM antimycin A (via Port D) starting with the initial volume of 175 μL RB in the chamber and diluting it to 9×, 10×, 11× and 12× with every injection through ports A to D, respectively. Once loaded, the sensor cartridge was placed into the Seahorse XFe96 Flux Analyzer for automated calibration. Seahorse Standard XFe96 assay plates were used for loading mitochondria. Initially total mitochondria were diluted to 6 μg/30 μL in RB and 30 μL was loaded in each well resulting in 6 μg mitochondria/well. The assay plates were centrifuged at 3,000 rpm for 4 min at 4° C. to adhere liver mitochondria at the bottom of the wells. After centrifugation, 145 μL RB (pre-incubated to 37° C.) was added without disturbing the mitochondrial layer to obtain a final volume of 175 μL per well. […]

Huh7 cells [8] = experiment: [3H]-thymidine incorporation assay, Huh7; format: cell-based, human; conditions: Huh7, 72 h
Experimental: as §2

Huh7 cells [9] = experiment: Western blot of autophagy markers LC3II and p62 in Huh7 cells; format: cell-based, human
Description: as §1

Wnt/β-catenin pathway = experiment: TOP-Flash TCF4-dependent dual luciferase reporter assay in Huh7 cells; format: cell-based, human; conditions: Huh7, 10 mM LiCl
Experimental: Cells were plated at 1×10^5 cells/well in 24-well plates and transiently transfected with 490 ng of luciferase-reporter plasmid and 10 ng of phRL-TK per well using the Turbofect transfection reagent (Thermo Scientific, USA). After 5-6 h post-transfection, cells were treated with drug(s) or DMSO vehicle control for 36 h in the presence or absence of LiCl (10 mM). Luciferase assays were performed using the Dual Luciferase Assay System (Promega, USA) according to manufacturer's instructions.

## O=[N+]([O-])c1ccc(NS(=O)(=O)c2cc(Cl)ccc2Cl)c2ccccc12 [Y3, 2,5-dichloro-N-(4-nitronaphthalen-1-yl)benzenesulfonamide]
Huh7 cells [1]
  Proton Leak: enhanced Proton Leak
AMPK
  AMPK activation: strongly activated AMPK
[2]
  expression of downstream Wnt/β-catenin target genes: reduced
PLC/PRF/5 cells [3]
  cell proliferation (3H-thymidine incorporation): inhibited cell proliferation
Huh7 cells [4]
  autophagic flux (Cyto-ID): reduction in the autophagic flux
Hep3B cells
  cell proliferation (3H-thymidine incorporation): inhibited cell proliferation
Wnt signaling
  inhibition of Wnt signaling: inhibited Wnt signaling
PLC/PRF/5 cells [5]
  apoptosis (Annexin V/PI): significant increased rate of apoptosis
Huh7 cells [6]
  apoptosis (Annexin V/PI): significant increased rate of apoptosis
[7]
  uncoupling: OCR blocked by oligomycin: increased OCR in dose-dependent manner
Huh7 cells [8]
  cell proliferation (3H-thymidine incorporation): inhibited cell proliferation
Huh7 cells [9]; Huh7, 50 μM CQ 8 h
  accumulation of LC3II in the presence of CQ (autophagic flux, ΔLC3II): reduced at higher doses
Huh7 cells [9]; Huh7, 40 h
  LC3II protein levels: increased
  p62 protein levels: increased
Wnt/β-catenin pathway
  Wnt/β-catenin transcriptional activity (TOP-Flash): reduced the Wnt/β-catenin transcriptional activity
